# Target: T1, rat GnRH receptor (Rattus norvegicus, UniProt P30969)
# T1 construct: or rat pituitaries (Pel Freez Biologicals, Rogers, Ark.) were homogenized; tissue Pel Freez Biologicals; host or cells: rat pituitaries (membrane preparation)
# T1 sequence (P30969 1-327): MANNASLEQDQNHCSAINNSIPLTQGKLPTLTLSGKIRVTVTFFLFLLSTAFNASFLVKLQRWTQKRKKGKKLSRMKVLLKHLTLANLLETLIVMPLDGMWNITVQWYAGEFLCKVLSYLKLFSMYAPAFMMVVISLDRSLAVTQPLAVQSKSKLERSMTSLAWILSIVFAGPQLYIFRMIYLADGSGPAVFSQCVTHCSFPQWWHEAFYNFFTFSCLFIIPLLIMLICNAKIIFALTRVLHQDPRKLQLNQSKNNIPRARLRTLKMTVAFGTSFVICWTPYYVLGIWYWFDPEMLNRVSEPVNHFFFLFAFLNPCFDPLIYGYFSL
# Experiment: Radioligand binding: inhibition of 125I-GnRH-A binding to rat GnRH receptor (rat pituitary membranes)
# Settings: read-out: Ki (nM), Inhibition Binding of 125I-GnRH-A to GnRH Receptors
# Description: (§1) HEK 293 cells containing mouse or human receptors, or rat pituitaries (Pel Freez Biologicals, Rogers, Ark.) were homogenized in buffer A containing: 50 mM Tris (pH 7.4), 0.32 M sucrose, 2 mM EGTA, 1 mM PMSF, 5 μg/ml aprotinen, 5 μg/ml Pepstatin A, and 1 μg/ml leupeptin. Homogenized cells were centrifuged at 4° C. at 20,000×g for 25 minutes, re-suspended in buffer A and re-centrifuged at 4° C. at 20,000×g for an additional 25 minutes. Total membrane protein was determined with a BCA kit (Pierce, Rockford, Ill.). Membranes were stored at −70° C. at a final membrane protein concentration of approximately 5 mg/ml.
# (§2) The radioiodinated agonist analog of GnRH, [des-Gly^10,D-Ala^6]GnRH ethylamide (^125I-GnRH-A), was used as the radioligand. […] The reaction mixture was vortexed and incubated for 1 minute at room temperature. After one minute, the mixture was vortexed and allowed to incubate for an additional minute. 2 ml of 0.5 M acetic acid/1% BSA was added to the reaction tube and the mixture was added to a C18 Sep-Pak cartridge. The cartridge was washed with subsequent washes of 5 ml H2O and 5 ml 0.5 M acetic acid and then eluted with 5×1 ml of 60% CH3CN/40% 0.5 M acetic acid. The eluate was diluted with 3× volume of HPLC buffer A (0.1% TFA in H2O) and loaded onto a C18 column. The iodinated product was eluted over 20-25 min with a gradient of 25-100% CH3CN containing 0.1% TFA. The radioactive fractions (750 μl/fraction) were collected into clean polypropylene tubes containing 100 μl of 10% BSA. Fractions were assessed for biological activity by radioligand binding. Specific activity of the radioligand was approximately 2200 Ci/mmol.
# (§3) Membranes were diluted to 0.01-0.5 mg/ml (depending upon the species of receptor) with assay buffer containing 50 mM HEPES (pH 7.4), 1 mM EDTA, 2.5 mM MgCl2, and 0.1% BSA. Membranes (diluted to utilize similar receptor numbers between assays) were incubated with approximately 0.04-0.06 nM ^125I-GnRH-A in the presence or absence of competing agents (0.1-10,000 nM) in a total volume of 200 μl in 96-well polypropylene plates for 1 hour at room temperature. Assays were stopped by rapid filtration onto 96-well GF/C filters soaked in 0.1% polyethylenimine (PEI) utilizing a Packard 96-well cell harvester. Filters were washed three times with ice-cold PBS (50 mM NaPO4, 0.9% NaCl, 2 mM MgCl2, and 0.02% NaN3, pH 7.4). 35 μl of scintillation cocktail was added to each filter well and filters were counted on a Packard Topcount. Control dose-response curves were generated to GnRH (0.1 nM-100 nM) in each competition binding experiment. Ki values were calculated from IC50 values according to Cheng et al., Biochemical Pharmacol. 22: 3099-3108, 1973. [formula]
row,SMILES,Ki [nM]
1,"COc1nc(Oc2ccccc2)nc(OC)c1NC(=O)c1ccc(Cc2cc3c(cc2C)C(C)(C)OC3(C)C)o1 [Example A2, 5-(1,1,3,3,6-Pentamethyl-1,3-dihydro-isobenzofuran-5-ylmethyl)-furan-2-carboxylic acid (4,6-dimethoxy-2-phenoxy-pyrimidin-5-yl)-amide]",9
2,"COCCOc1nc(OC)c(NC(=O)c2ccc(Cc3cc4c(cc3C)C(C)(C)OC4(C)C)o2)c(OC)n1 [Example A4, 5-(1,1,3,3,6-Pentamethyl-1,3-dihydro-isobenzofuran-5-ylmethyl)-furan-2-carboxylic acid [4,6-dimethoxy-2-(2-methoxy-ethoxy)-pyrimidin-5-yl]-amide]",9.5
3,"COc1nc(NC2CCN(C)CC2)nc(OC)c1NC(=O)c1ccc(Cc2cc3c(cc2C)C(C)(C)OC3(C)C)o1 [Example D13, N-{4,6-Dimethoxy-2-[(1-methylpiperidin-4-yl)amino]pyrimidin-5-yl}-5-[(1,1,3,3,6-pentamethyl-1,3-dihydro-2-benzofuran-5-yl)methyl]-2-furamide]",16

# Target: T2, human GnRH receptors (Homo sapiens, UniProt P30968)
# T2 construct: expressed in transfected cells; host or cells: HEK 293 cells, stably transfected; membranes
# T2 sequence (P30968 1-328): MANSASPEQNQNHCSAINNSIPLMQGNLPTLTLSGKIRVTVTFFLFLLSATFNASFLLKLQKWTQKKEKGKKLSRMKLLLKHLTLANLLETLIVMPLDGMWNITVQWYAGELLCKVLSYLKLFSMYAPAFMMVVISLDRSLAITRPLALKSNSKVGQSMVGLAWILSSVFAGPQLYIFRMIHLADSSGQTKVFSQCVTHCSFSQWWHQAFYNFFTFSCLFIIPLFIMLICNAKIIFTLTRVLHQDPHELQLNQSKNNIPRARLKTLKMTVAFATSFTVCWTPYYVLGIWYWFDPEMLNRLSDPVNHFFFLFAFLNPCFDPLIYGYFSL
# Experiment: Radioligand binding: inhibition of 125I-GnRH-A binding to human GnRH receptor membranes
# Settings: HEK 293 cell membranes
# Description: HEK 293 cells stably transfected with mouse or human GnRH receptors as described above were grown in Dulbecco's high-glucose, modified Eagle's medium (DMEM) supplemented with 0.2% G418, 10% fetal bovine serum (FBS) and 100 U/mL penicillin/streptomycin. GH3 cells stably transfected with the rat GnRH receptor (GGH3) were provided by Dr. William Chin (Harvard Medical School, Boston, Mass.). These cells have been extensively characterized previously (Kaiser et al., 1997). The cells were grown in low glucose DMEM containing: 100U/mL penicillin/streptomycin, 0.6% G418 and 10% heat-inactivated FBS.
# as §1, §2, §3
row,SMILES,Ki [nM]
1,"COc1nc(Oc2ccccc2)nc(OC)c1NC(=O)c1ccc(Cc2cc3c(cc2C)C(C)(C)OC3(C)C)o1 [Example A2, 5-(1,1,3,3,6-Pentamethyl-1,3-dihydro-isobenzofuran-5-ylmethyl)-furan-2-carboxylic acid (4,6-dimethoxy-2-phenoxy-pyrimidin-5-yl)-amide]",7.6
2,"COCCOc1nc(OC)c(NC(=O)c2ccc(Cc3cc4c(cc3C)C(C)(C)OC4(C)C)o2)c(OC)n1 [Example A4, 5-(1,1,3,3,6-Pentamethyl-1,3-dihydro-isobenzofuran-5-ylmethyl)-furan-2-carboxylic acid [4,6-dimethoxy-2-(2-methoxy-ethoxy)-pyrimidin-5-yl]-amide]",18
3,"COc1nc(NC2CCN(C)CC2)nc(OC)c1NC(=O)c1ccc(Cc2cc3c(cc2C)C(C)(C)OC3(C)C)o1 [Example D13, N-{4,6-Dimethoxy-2-[(1-methylpiperidin-4-yl)amino]pyrimidin-5-yl}-5-[(1,1,3,3,6-pentamethyl-1,3-dihydro-2-benzofuran-5-yl)methyl]-2-furamide]",38
4,"CCOC(=O)CN(Cc1ccccc1)c1nc(OC)c(NC(=O)c2ccc(Cc3cc4c(cc3C)C(C)(C)OC4(C)C)o2)c(OC)n1 [Example D51, Ethyl N-benzyl-N-[4,6-dimethoxy-5-({5-[(1,1,3,3,6-pentamethyl-1,3-dihydro-2-benzofuran-5-yl)methyl]-2-furoyl}amino)pyrimidin-2-yl]glycinate]",202
5,"COc1ccccc1C1CCN(c2nc(OC)c(NC(=O)c3ccc(Cc4cc5c(cc4C)C(C)(C)OC5(C)C)o3)c(OC)n2)CC1 [Example D52, N-{4,6-Dimethoxy-2-[4-(2-methoxyphenyl)piperidin-1-yl]pyrimidin-5-yl}-5-[(1,1,3,3,6-pentamethyl-1,3-dihydro-2-benzofuran-5-yl)methyl]-2-furamide]",260
6,"COc1nc(N2CCN(Cc3ccncc3)CC2)nc(OC)c1NC(=O)c1ccc(Cc2cc3c(cc2C)C(C)(C)OC3(C)C)o1 [Example D54, N-{4,6-Dimethoxy-2-[4-(pyridin-4-ylmethyl)piperazin-1-yl]pyrimidin-5-yl}-5-[(1,1,3,3,6-pentamethyl-1,3-dihydro-2-benzofuran-5-yl)methyl]-2-furamide]",150
7,"COc1nc(NCc2ccc(-c3ccccc3)cc2)nc(OC)c1NC(=O)c1ccc(Cc2cc3c(cc2C)C(C)(C)OC3(C)C)o1 [Example D55, N-{2-[(1,1′-Biphenyl-4-ylmethyl)amino]-4,6-dimethoxypyrimidin-5-yl}-5-[(1,1,3,3,6-pentamethyl-1,3-dihydro-2-benzofuran-5-yl)methyl]-2-furamide]",160
8,"COc1nc(N2CCN(c3cc(C(F)(F)F)nc4ccccc34)CC2)nc(OC)c1NC(=O)c1ccc(Cc2cc3c(cc2C)C(C)(C)OC3(C)C)o1 [Example D61, N-(4,6-dimethoxy-2-{4-[2-(trinfluoromethyl)quinolin-4-yl]piperazin-1-yl}pyrimidin-5-yl)-5-[(1,1,3,3,6-pentamethyl-1,3-dihydro-2-benzofuran-5-yl)methyl]-2-furamide]",500
9,"COc1nc(N2CCN(c3ccc(Cl)cc3)CC2)nc(OC)c1NC(=O)c1ccc(Cc2cc3c(cc2C)C(C)(C)OC3(C)C)o1 [Example D62, N-{2-[4-(4-Chlorophenyl)piperazin-1-yl]-4,6-dimethoxypyrimidin-5-yl}-5-[(1,1,3,3,6-pentamethyl-1,3-dihydro-2-benzofuran-5-yl)methyl]-2-furamide]",120
10,"COc1nc(NCCCN2CCN(C)CC2)nc(OC)c1NC(=O)c1ccc(Cc2cc3c(cc2C)C(C)(C)OC3(C)C)o1 [Example D63, N-(4,6-Dimethoxy-2-{[3-(4-methylpiperazin-1-yl)propyl]amino}pyrimidin-5-yl)-5-[(1,1,3,3,6-pentamethyl-1,3-dihydro-2-benzofuran-5-yl)methyl]-2-furamide]",1.8
11,"COc1nc(N[C@H](CO)Cc2c[nH]c3ccccc23)nc(OC)c1NC(=O)c1ccc(Cc2cc3c(cc2C)C(C)(C)OC3(C)C)o1 [Example D64, N-(2-{[(1S)-2-Hydroxy-1-(1H-indol-3-ylmethyl)ethyl]amino}-4,6-dimethoxypyrimidin-5-yl)-5-[(1,1,3,3,6-pentamethyl-1,3-dihydro-2-benzofuran-5-yl)methyl]-2-furamide]",21
12,"COc1nc(NCCc2ccccn2)nc(OC)c1NC(=O)c1ccc(Cc2cc3c(cc2C)C(C)(C)OC3(C)C)o1 [Example D65, N-{4,6-Dimethoxy-2-[(2-pyridin-2-ylethyl)amino]pyrimidin-5-yl}-5-[(1,1,3,3,6-pentamethyl-1,3-dihydro-2-benzofuran-5-yl)methyl]-2-furamide]",6.7
13,"COc1nc(NCCc2ccncc2)nc(OC)c1NC(=O)c1ccc(Cc2cc3c(cc2C)C(C)(C)OC3(C)C)o1 [Example D66, N-{4,6-Dimethoxy-2-[(2-pyridin-4-ylethyl)amino]pyrimidin-5-yl}-5-[(1,1,3,3,6-pentamethyl-1,3-dihydro-2-benzofuran-5-yl)methyl]-2-furamide]",5.1
14,"COc1nc(NCCCN2CCOCC2)nc(OC)c1NC(=O)c1ccc(Cc2c(C)cc3c(c2C)C(C)(C)CO3)o1 [Example H1, N-{4,6-Dimethoxy-2-[(3-morpholin-4-ylpropyl)amino]-pyrimidin-5-yl}-5-[(3,3,4,6-tetramethyl-2,3-dihydro-1-benzofuran-5-yl)methyl]-2-furamide]",50
15,"COc1nc(NCCCN2CCN(C)CC2)nc(OC)c1NC(=O)c1ccc(Cc2c(C)cc3c(c2C)C(C)(C)CO3)o1 [Example H2, N-(4,6-Dimethoxy-2-{[3-(4-methylpiperazin-1-yl)propyl]amino}pyrimidin-5-yl)-5-[(3,3,4,6-tetramethyl-2,3-dihydro-1-benzofuran-5-yl)methyl]-2-furamide]",47
16,"COc1nc(NCCCN(C)C)nc(OC)c1NC(=O)c1ccc(Cc2c(C)cc3c(c2C)C(C)(C)CO3)o1 [Example H3, N-(2-{[3-(Dimethylamino)propyl]amino}-4,6-dimethoxypyrimidin-5-yl)-5-[(3,3,4,6-tetramethyl-2,3-dihydro-1-benzofuran-5-yl)methyl]-2-furamide]",46
17,"COc1nc(NCCCN(C)C)nc(OC)c1NC(=O)c1ccc(Cc2cc3c(cc2C)C(C)(C)CC3(C)C)o1 [Example J1, N-(2-{[3-(dimethylamino)propyl]amino}-4,6-dimethoxypyrimidin-5-yl)-5-[(1,1,3,3,6-pentamethyl-2,3-dihydro-1H-inden-5-yl)methyl]-2-furamide]",0.2

# Reference: US6833372B2, “Non-peptide GnRH agents, Pharmaceutical compositions, and methods for their use” (Pfizer, Inc., priority 2002, dated 2004)
